Experiments:
Drp1 [1] = molecular target: T1, Drp1 (Homo sapiens, UniProt O00429); test: Drp1 recruitment to mitochondria in HPV(−) UM-SCC-22A cells (Western blotting of mitochondria-enriched fractions); assay type: cell-based; conditions: 5 uM peptide, 20 uM C18-pyr-cer, 1.5 hours
T1 construct: Western blotting using whole cell (UM-SCC-22A) lysates versus mitochondria-enriched fractions; endogenous in cells; host or cells: UM-SCC-22A
Experimental: (§1) Images were quantified using FIJI.
(§2) Immunoblotting. Cells were lysed in RIPA buffer plus protease inhibitor cocktail on ice for 15 minutes then centrifuged. 30ug of protein from the supernatant were run on Criterion™ TGX™ Precast Gels (Bio-Rad).
Cell fractionation. Cells were treated with 40 uM cisplatin or vehicle for eight hours, 20 uM C18-pyr-cer or vehicle and/or 5 uM scr-pept or E2F5-pept for 1.5 hours. Mitochondria isolation kit (ThermoFisher Scientific) was used as described by the manufacturer.

[2] = test system: UM-SCC-22A-derived xenograft tumors; test: HPV(−) UM-SCC-22A-derived xenograft tumor growth in SCID mice; assay type: in vivo; conditions: UM-SCC-22A xenografts, 3.76 μg peptide, absence/presence of cisplatin 3.5 mg/kg every 3 days for 2 weeks
Experimental: To determine whether HPV(+) compared to HPV(−) HNSCC cells are more sensitive to stress-mediated growth inhibition in response to chemotherapeutic drugs, it was first established HPV(+) UM-SCC-47- and HPV(−) UM-SCC-22A-derived xenograft tumors in SCID mice. After the xenograft-derived tumors were ˜75-100 mm^3, the mice were treated with cisplatin (3.5 mg/kg) for two weeks, which is below its maximum tolerated doses (van Moorsel et al, 1999). Then, tumor volumes were measured at days 0 and 14 of treatment. […] After tumor growth measurements in the mice were taken, the tumors were surgically removed and the effects of cisplatin on CerS1-6 mRNA were measured by qRT-PCR.
Eight arginine residues (R8) were included on the N-terminus to enhance cell penetration of the E2F5 peptide (Rancher and Ryu, 2015).
(§3) In vivo studies. Severe combined immunodeficient (SCID) mice were purchased from Jackson Laboratories. Age- and sex-matched mice were used. All animal protocols were approved by the Institutional Animal Care and Use Committee at the Medical University of South Carolina. UM-SCC22A or UM-SCC47 cells (75,000) were implanted into the flanks of SCID mice (n=5-8 mice). When the tumors were palpable, the mice were treated every three days with 3.5 mg/kg cisplatin, 20 mg/kg C18-pyr-cer, or corresponding amount of vehicle control and/or 3.76 μg E2F5-peptide or scrambled control peptide. Tumor volume was measured using calipers. At the end of the 14-day treatment, the mice were euthanized and tumor tissues were collected (Sentelle et al, 2007; Saddoughi et al, 2013).

Drp1-E2F5 complex [3] = molecular target: T2, Drp1-E2F5 complex (Homo sapiens, UniProt O00429); test: Drp1-E2F5 association by PLA in tumor tissue sections; assay type: in vivo, mice; conditions: peptide plus cisplatin versus Scr-pept with/without cisplatin
T2 construct: from tissue; host or cells: UM-SCC-22A xenograft tumours grown in SCID mice
T2 sequence (O00429 whole entry, one chain of several): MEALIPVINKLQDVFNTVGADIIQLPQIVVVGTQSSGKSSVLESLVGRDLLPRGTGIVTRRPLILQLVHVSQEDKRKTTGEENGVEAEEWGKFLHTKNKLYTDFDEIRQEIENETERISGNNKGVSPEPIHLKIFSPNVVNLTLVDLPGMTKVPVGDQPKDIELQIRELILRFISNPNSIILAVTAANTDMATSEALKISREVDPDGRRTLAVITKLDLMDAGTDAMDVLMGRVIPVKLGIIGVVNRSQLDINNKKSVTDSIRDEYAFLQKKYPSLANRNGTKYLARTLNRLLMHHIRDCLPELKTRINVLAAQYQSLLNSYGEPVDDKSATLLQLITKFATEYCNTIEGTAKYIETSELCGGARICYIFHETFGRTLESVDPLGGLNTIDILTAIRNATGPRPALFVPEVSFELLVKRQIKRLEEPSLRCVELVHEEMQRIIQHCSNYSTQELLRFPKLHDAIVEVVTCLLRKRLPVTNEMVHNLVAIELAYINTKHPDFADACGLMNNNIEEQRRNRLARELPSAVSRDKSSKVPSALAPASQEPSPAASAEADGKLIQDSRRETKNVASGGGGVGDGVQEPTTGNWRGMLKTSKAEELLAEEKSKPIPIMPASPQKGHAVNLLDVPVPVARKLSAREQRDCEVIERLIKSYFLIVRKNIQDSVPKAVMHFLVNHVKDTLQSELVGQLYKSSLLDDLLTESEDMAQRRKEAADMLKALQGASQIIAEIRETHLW
Experimental: as §1
(§4) Proximity ligation assay. Proximity ligation assays were performed using Duolink in situ red kit (Sigma) per manufacturer's instructions, then analyzed as described (Panneer-Selvam et al, 2015).
In vivo studies. […] Age- and sex-matched mice were used. […] Tumor volume was measured using calipers.

[4] = test system: UM-SCC-22A xenograft-derived tumors; conditions: peptide plus cisplatin versus Scr-pept with/without cisplatin
Text: Data are means±SD from three independent experiments. *p<0.05 as determined by Student's t test. […] Data are means±SD from three independent experiments. *p<0.05 as determined by Student's t test. […] Data are means±SD from three independent experiments. *p<0.05 as determined by Student's t test.
as §3

UM-SCC-22A cells [5] = test: Mitophagy in UM-SCC-22A cells (live cell imaging, colocalization of LTG and MTR); assay type: cell-based
Experimental: Laser scanning confocal microscopy. For live cell imaging, cultured cells were incubated with 500 nM of mitotracker […] and 500 nM lysotracker green in DMSO for 30 min at 37° C. […] An Olympus FV10i confocal microscope was used for imaging. 543- and 488-nm channels were used for visualizing red or green fluorescence, respectively, with pinholes set to 1.0 Airy units. At least three random fields were imaged for each sample ([…] et al, 2012).

UM-SCC-22A cells [6] = test system: UM-SCC-22A cells
Experimental: Trypan blue exclusion assay. Cells were seeded in 6-well plates, and allowed to adhere for 20 h. After treatments (for 24 h), medium containing dead cells was pelleted with trypsinized cells, then re-suspended in 1× PBS then counted in a hemocytometer after addition of trypan blue dye (Sigma-Aldrich) at a 1:10 dilution.

Drp1-E2F5 complex [7] = test: Drp1-E2F5 association in UM-SCC-47 cells (PLA, co-immunoprecipitation); assay type: cell-based
Experimental: as §4
Co-immunoprecipitation. Cells were lysed in 500 ul Pierce™ IP lysis/wash buffer (ThermoFisher) with protease inhibitor cocktail (Sigma) on ice for 15 minutes. 350 μg of protein were used with SureBeads™ Protein A Magnetic Beads (BioRad) per manufacturer's instructions, using 10 μg antibody or corresponding normal IgG control (SCBT).

Drp1-MFF association = Drp1-MFF association by PLA in UM-SCC47 cells; assay type: cell-based
Experimental: (§5) FIGS. 9A-D. E2F5 enhances Drp1 translocation to mitochondria and association with MFF to induce HPV-E7/ceramide-dependent mitophagy. (A) Effects of stable knockdown of E2F5 using shRNA on DRP1-MFF association with/without C18-pyr-cer were measured by PLA using anti-DRP1 and anti-MFF antibodies compared to Scr-shRNA-transfected UM-SCC-47 controls. […] (B) HPV(−) UM-SCC1A cells transiently transfected with exogenous E2F5 or empty vector (vec) were used to measure the association between Drp1 and MFF in the absence/presence of ceramide stress by PLA using anti-DRP1 and anti-MFF antibodies. […] (C) Effects of shRNA-mediated E2F5 knockdown on Drp1 localization to mitochondria in the absence/presence of C18-pyr-cer were assessed in whole cell lysates (UM-SCC-47) versus mitochondria-enriched fractions using Western blotting. (D) Effects of transient reconstitution of E2F5^WT or E2F5^Δ84-177 proteins in UM-SCC47 cells, which were stably transfected with E2F5-shRNA, on Drp1 abundance, were measured by Western blotting using anti-Drp1 antibody, in whole cell lysates versus mitochondria-enriched fractions.
as §4

Drp1 [8] = test: Drp1 recruitment to mitochondria in HPV(+) UM-SCC-47 cells (Western blotting of mitochondria-enriched fractions); assay type: cell-based
Experimental: as §5, §2
Cell fractionation. […]

Drp1 [9] = test: Drp1 oligomerization by Western blotting without reducing agents; assay type: cell-based; conditions: HPV(+) UM-SCC47 cells
Experimental: FIGS. 7A-F. E2F5/Drp1 complex enhances HPV-E7/ceramide-dependent lethal mitophagy. (A) UM-SCC47 cells were treated with cisplatin or C18-pyr-cer and Western blotting was performed with cell lysates in the absence of reducing agents in the lysing buffer to detect monomeric and dimeric Drp1 protein abundance compared to vehicle-treated controls. Actin was used as a loading control. (B-C) Cell death was assessed by trypan blue exclusion assay in UM-SCC47 cells expressing dominant-negative Drp1 mutant (K38A-DRP1) and treated with C18-pyr-cer (B) or cisplatin (C) compared to vector-transfected controls. […] (D-E) Association between E2F5 and Drp1 in response to ceramide stress (C18-pyr-cer) was measured in UM-SCC-47 cells using PLA (D) or immunoprecipitation followed by Western blotting (E) with anti-Drp1 or anti-E2F5 antibodies. IgG was used as a control. […] PLA signals were quantified as described by the manufacturer using the PLA quantification software. […] Effects of siRNA-mediated HPV-E6/E7 knockdown on pRB, HPV-E7 and p53 protein abundance were also confirmed by Western blotting compared to Scr-siRNA-transfected controls in the absence/presence of C18-pyr-cer (right panel). Total RB was used a loading control (Rb band, upper panel).
Immunoblotting. Cells were lysed in RIPA buffer plus protease inhibitor cocktail on ice for 15 minutes then centrifuged. […]

UM-SCC-47 cells [10] = test: Mitophagy in UM-SCC-47 cells (Sea Horse oxygen consumption rate, TEM); assay type: cell-based
Experimental: Measurement of cellular respiration using Seahorse XF analyzer. Cells were plated in a Seahorse Biosciences 96-well plate and allowed to adhere for 20 hours. They were then treated with 20 uM C18-pyr-cer or equivalent amount of vehicle (EtOH) for two hours, then oxygen consumption rate was measured using a Seahorse XF96 (Seahorse Biosciences) as described by the manufacturer (Sentelle et al, 2012).
Ultra-structure analysis using transmission electron microscopy.

UM-SCC-47 cells [11] = test: Growth inhibition in culture, IC50 determination by MTT assay; assay type: cell-based
Experimental: (§6) IC50 determination by MTT assay. Cells were plated in 96-well plates and allowed to adhere for 20 h, then treated with the indicated concentrations of drug. After 48 h treatment, the MTT assay (ATCC) was performed as described previously (Sentelle et al, 2012).

UM-SCC-22A cells [12] = test: as above; assay type: cell-based; conditions: UM-SCC-22A (HPV−) cells, 48 h; read-out: IC50 (concentration that inhibited growth by 50%)
Experimental: as §6

T1 sequence (O00429 whole entry): as the sequence (O00429 whole entry, one chain of several) above

Biotin-RRRRRRRR-ELDQQKLWLQQSIKNVMDDSINNRFSYVTHED [E2F5-pept]
ceramide-induced Drp1 recruitment to mitochondria (Drp1 [1]): enhanced ceramide-induced Drp1 recruitment to mitochondria | tumor growth [2]: almost completely inhibited tumor growth | co-localization of Drp1 and E2F5 in tumors (PLA) (Drp1-E2F5 complex [3]): increased | mitophagy in tumors (TEM) [4]: increased mitophagy | C18-pyr-cer-induced mitophagy (colocalization of LTG and MTR) (UM-SCC-22A cells [5]; peptide plus C18-pyr-cer): enhanced C18-pyr-cer-induced mitophagy | C18-pyr-cer-induced cell death (UM-SCC-22A cells [6]; peptide plus C18-pyr-cer, compared to scr-pept): largely increased | cisplatin-induced cell death (UM-SCC-22A cells [6]; peptide plus cisplatin, compared to scr-pept): largely increased | peptide-enhanced cell death under shRNA-mediated Drp1 knockdown (UM-SCC-22A cells [6]; with/without C18-pyr-cer): attenuated

C18-pyridinium-ceramide [C18-pyr-cer]
Drp1-E2F5 association by PLA (Drp1-E2F5 complex [7]; versus controls): increased Drp1-E2F5 association | Drp1-E2F5 association by co-immunoprecipitation (Drp1-E2F5 complex [7]; versus vehicle control): increased association between Drp1 and E2F5 | Drp1-MFF association by PLA (Drp1-MFF association): induced Drp1-MFF association | recruitment of Drp1 to mitochondria (Drp1 [8]): induced recruitment of Drp1 to mitochondria | Drp1 oligomerization and/or activation (Drp1 [9]): Drp1 oligomerization and/or activation was observed | lethal mitophagy in HPV(−) cells (UM-SCC-22A cells [5]; 5-10 μM, 24-48 h): induces lethal mitophagy | number of mitochondria and autophagosomes by TEM (UM-SCC-47 cells [10]; HPV(+) UM-SCC-47 compared to HPV(−) UM-SCC-22A cells): a decreased number mitochondria and an increased number of autophagosomes | mitophagy detected by decreased oxygen consumption rate (UM-SCC-47 cells [10]; UM-SCC-47 cells, Sea Horse, versus vehicle): increased mitophagy | IC50 (UM-SCC-47 cells [11]; UM-SCC-47 (HPV+) cells, 48 h, read-out: IC50 (concentration that inhibited growth by 50%)): 1.6 µM | sensitivity for drug-induced growth inhibition/cell death, UM-SCC-47 compared to UM-SCC-22A cells (UM-SCC-47 cells [11]; cells in culture): ~3 fold | IC50 (UM-SCC-22A cells [12]): 5 µM

Source: patent US20190255146A1, “POLYPEPTIDES FOR IMPROVED RESPONSE TO ANTI-CANCER THERAPY” (MUSC FOUNDATION FOR RESEARCH DEVELOPMENT, priority 2016, published 2019)
